Test results taken from publication PMC3048208 (British Journal of Cancer, 2011).
Where a name gives a salt, the structure may show the parent alone. Marks after values point to notes of the source that are not given here.

System: patients with advanced solid tumours
Test: Phase I safety: DLT and adverse events (CTCAE v3.0)
[1] = All grades, level 1, 10 mg 3 days every 2 weeks, 3 patients
[2] = All grades, level 2, 10 mg, 6 patients
[3] = All grades, level 3, 20 mg, 6 patients
[4] = All grades, level 4, 30 mg, 4 patients
[5] = All grades, level 5, 50 mg, 4 patients
[6] = All grades, level 5.5, 60 mg, 7 patients
[7] = All grades, level 6, 70 mg, 6 patients
[8] = All grades, level 7, 90 mg, 2 patients
[9] = Grades 3/4, level 1, 10 mg 3 days every 2 weeks, 3 patients

CCCCc1nc2cc(/C=C/C(=O)NO)ccc2n1CCN(CC)CC [SB939, 3-[2-butyl-1-(2-diethylaminoethyl)-1H-benzoimidazol-5-yl]-N-hydroxyacrylami-hydrochloride]
Grade 2 raised AST and hyperbilirubinemia, no. of patients (60 mg): 3 | Grade 3 ALT rise, no. of patients (60 mg): two | Dose reductions, patients (70 mg): 2 of 6 | Dose reductions, patients (90 mg): 2 of 2 | ALT (raised), no. of patients [1]: 0 | AST (raised), no. of patients [1]: 1 | Abdominal pain, no. of patients [1]: 0 | Alkaline phophatase (raised), no. of patients [1]: 1 | Altered taste, no. of patients [1]: 0 | Anaemia, no. of patients [1]: 2 | Anorexia, no. of patients [1]: 0 | Bilirubin (raised), no. of patients [1]: 0 | Cardiac arrythmia other, no. of patients [1]: 0 | Cardiac dysfunction, no. of patients [1]: 0 | Cardiac ischaemia, no. of patients [1]: 0 | Constipation, no. of patients [1]: 0 | Creatinine (raised), no. of patients [1]: 0 | Diarrhoea, no. of patients [1]: 0 | Fatigue, no. of patients [1]: 0 | Leukopenia, no. of patients [1]: 1 | Lymphopenia, no. of patients [1]: 0 | Mucositis, no. of patients [1]: 1 | Myositis, no. of patients [1]: 0 | Nausea, no. of patients [1]: 0 | Neutropenia, no. of patients [1]: 1 | QT prolongation, no. of patients [1]: 0 | Supra ventricular arrythmia, no. of patients [1]: 0 | Syncope, no. of patients [1]: 0 | Thrombocytopenia, no. of patients [1]: 0 | Ventricular arrythmias (PVCs), no. of patients [1]: 0 | Ventricular bigemini, no. of patients [1]: 0 | Vomiting, no. of patients [1]: 0 | ALT (raised), no. of patients [2]: 1 | AST (raised), no. of patients [2]: 3 | Abdominal pain, no. of patients [2]: 0 | Alkaline phophatase (raised), no. of patients [2]: 5 | Altered taste, no. of patients [2]: 0 | Anaemia, no. of patients [2]: 6 | Anorexia, no. of patients [2]: 0 | Bilirubin (raised), no. of patients [2]: 1 | CPK, no. of patients [2]: 0 | Cardiac arrythmia other, no. of patients [2]: 0 | Cardiac dysfunction, no. of patients [2]: 0 | Cardiac ischaemia, no. of patients [2]: 0 | Constipation, no. of patients [2]: 0 | Creatinine (raised), no. of patients [2]: 1 | Diarrhoea, no. of patients [2]: 1 | Fatigue, no. of patients [2]: 2 | Leukopenia, no. of patients [2]: 2 | Lymphopenia, no. of patients [2]: 5 | Mucositis, no. of patients [2]: 1 | Myositis, no. of patients [2]: 0 | Nausea, no. of patients [2]: 0 | Neutropenia, no. of patients [2]: 1 | QT prolongation, no. of patients [2]: 1 | Supra ventricular arrythmia, no. of patients [2]: 0 | Syncope, no. of patients [2]: 0 | Thrombocytopenia, no. of patients [2]: 2 | Ventricular arrythmias (PVCs), no. of patients [2]: 1 ^c | Ventricular bigemini, no. of patients [2]: 1 ^c | Vomiting, no. of patients [2]: 0 | ALT (raised), no. of patients [3]: 2 | AST (raised), no. of patients [3]: 3 | Abdominal pain, no. of patients [3]: 0 | Alkaline phophatase (raised), no. of patients [3]: 4 | Altered taste, no. of patients [3]: 1 | Anaemia, no. of patients [3]: 5 | Anorexia, no. of patients [3]: 2 | Bilirubin (raised), no. of patients [3]: 1 | CPK, no. of patients [3]: 1 | Cardiac arrythmia other, no. of patients [3]: 0 | Cardiac dysfunction, no. of patients [3]: 0 | Cardiac ischaemia, no. of patients [3]: 0 | Constipation, no. of patients [3]: 0 | Creatinine (raised), no. of patients [3]: 1 | Diarrhoea, no. of patients [3]: 1 | Fatigue, no. of patients [3]: 2 | Leukopenia, no. of patients [3]: 1 | Lymphopenia, no. of patients [3]: 2 | Mucositis, no. of patients [3]: 0 | Myositis, no. of patients [3]: 1 | Nausea, no. of patients [3]: 2 | Neutropenia, no. of patients [3]: 1 | QT prolongation, no. of patients [3]: 0 | Supra ventricular arrythmia, no. of patients [3]: 0 | Syncope, no. of patients [3]: 1 | Thrombocytopenia, no. of patients [3]: 1 | Ventricular arrythmias (PVCs), no. of patients [3]: 0 | Ventricular bigemini, no. of patients [3]: 0 | Vomiting, no. of patients [3]: 1 | ALT (raised), no. of patients [4]: 2 | AST (raised), no. of patients [4]: 1 | Abdominal pain, no. of patients [4]: 0 | Alkaline phophatase (raised), no. of patients [4]: 2 | Altered taste, no. of patients [4]: 0 | Anaemia, no. of patients [4]: 4 | Anorexia, no. of patients [4]: 0 | Bilirubin (raised), no. of patients [4]: 1 | CPK, no. of patients [4]: 1 | Cardiac arrythmia other, no. of patients [4]: 0 | Cardiac dysfunction, no. of patients [4]: 0 | Cardiac ischaemia, no. of patients [4]: 0 | Constipation, no. of patients [4]: 0 | Creatinine (raised), no. of patients [4]: 2 | Diarrhoea, no. of patients [4]: 1 | Fatigue, no. of patients [4]: 1 | Leukopenia, no. of patients [4]: 2 | Lymphopenia, no. of patients [4]: 2 | Mucositis, no. of patients [4]: 0 | Myositis, no. of patients [4]: 0 | Nausea, no. of patients [4]: 0 | Neutropenia, no. of patients [4]: 2 | QT prolongation, no. of patients [4]: 0 | Supra ventricular arrythmia, no. of patients [4]: 0 | Syncope, no. of patients [4]: 0 | Thrombocytopenia, no. of patients [4]: 0 | Ventricular arrythmias (PVCs), no. of patients [4]: 0 | Ventricular bigemini, no. of patients [4]: 0 | Vomiting, no. of patients [4]: 0 | ALT (raised), no. of patients [5]: 0 | AST (raised), no. of patients [5]: 2 | Abdominal pain, no. of patients [5]: 0 | Alkaline phophatase (raised), no. of patients [5]: 2 | Altered taste, no. of patients [5]: 0 | Anaemia, no. of patients [5]: 4 | Anorexia, no. of patients [5]: 1 | Bilirubin (raised), no. of patients [5]: 0 | CPK, no. of patients [5]: 0 | Cardiac arrythmia other, no. of patients [5]: 0 | Cardiac dysfunction, no. of patients [5]: 0 | Cardiac ischaemia, no. of patients [5]: 0 | Constipation, no. of patients [5]: 0 | Creatinine (raised), no. of patients [5]: 0 | Diarrhoea, no. of patients [5]: 0 | Fatigue, no. of patients [5]: 3 | Leukopenia, no. of patients [5]: 1 | Lymphopenia, no. of patients [5]: 4 | Mucositis, no. of patients [5]: 0 | Myositis, no. of patients [5]: 0 | Nausea, no. of patients [5]: 2 | Neutropenia, no. of patients [5]: 1 | QT prolongation, no. of patients [5]: 0 | Supra ventricular arrythmia, no. of patients [5]: 0 | Syncope, no. of patients [5]: 0 | Thrombocytopenia, no. of patients [5]: 0 | Ventricular arrythmias (PVCs), no. of patients [5]: 0 | Ventricular bigemini, no. of patients [5]: 0 | Vomiting, no. of patients [5]: 2 | ALT (raised), no. of patients [6]: 4 | AST (raised), no. of patients [6]: 5 | Abdominal pain, no. of patients [6]: 0 | Alkaline phophatase (raised), no. of patients [6]: 6 | Altered taste, no. of patients [6]: 1 | Anaemia, no. of patients [6]: 7 | Anorexia, no. of patients [6]: 4 | Bilirubin (raised), no. of patients [6]: 2 | CPK, no. of patients [6]: 0 | Cardiac arrythmia other, no. of patients [6]: 1 | Cardiac dysfunction, no. of patients [6]: 0 | Cardiac ischaemia, no. of patients [6]: 0 | Constipation, no. of patients [6]: 0 | Creatinine (raised), no. of patients [6]: 2 | Diarrhoea, no. of patients [6]: 4 | Fatigue, no. of patients [6]: 6 | Leukopenia, no. of patients [6]: 5 | Lymphopenia, no. of patients [6]: 6 | Mucositis, no. of patients [6]: 0 | Myositis, no. of patients [6]: 0 | Nausea, no. of patients [6]: 5 | Neutropenia, no. of patients [6]: 5 | QT prolongation, no. of patients [6]: 1 | Supra ventricular arrythmia, no. of patients [6]: 0 | Syncope, no. of patients [6]: 0 | Thrombocytopenia, no. of patients [6]: 5 | Ventricular arrythmias (PVCs), no. of patients [6]: 0 | Ventricular bigemini, no. of patients [6]: 0 | Vomiting, no. of patients [6]: 4 | ALT (raised), no. of patients [7]: 1 | AST (raised), no. of patients [7]: 2 | Abdominal pain, no. of patients [7]: 0 | Alkaline phophatase (raised), no. of patients [7]: 3 | Altered taste, no. of patients [7]: 0 | Anaemia, no. of patients [7]: 6 | Anorexia, no. of patients [7]: 3 | Bilirubin (raised), no. of patients [7]: 0 | CPK, no. of patients [7]: 1 | Cardiac arrythmia other, no. of patients [7]: 0 | Cardiac dysfunction, no. of patients [7]: 0 | Cardiac ischaemia, no. of patients [7]: 0 | Constipation, no. of patients [7]: 0 | Creatinine (raised), no. of patients [7]: 2 | Diarrhoea, no. of patients [7]: 0 | Fatigue, no. of patients [7]: 4 | Leukopenia, no. of patients [7]: 3 | Lymphopenia, no. of patients [7]: 4 | Mucositis, no. of patients [7]: 1 | Myositis, no. of patients [7]: 0 | Nausea, no. of patients [7]: 4 | Neutropenia, no. of patients [7]: 3 | QT prolongation, no. of patients [7]: 1 | Supra ventricular arrythmia, no. of patients [7]: 0 | Syncope, no. of patients [7]: 0 | Thrombocytopenia, no. of patients [7]: 6 | Ventricular arrythmias (PVCs), no. of patients [7]: 0 | Ventricular bigemini, no. of patients [7]: 0 | Vomiting, no. of patients [7]: 2 | ALT (raised), no. of patients [8]: 2 | AST (raised), no. of patients [8]: 2 | Abdominal pain, no. of patients [8]: 0 | Alkaline phophatase (raised), no. of patients [8]: 1 | Altered taste, no. of patients [8]: 1 | Anaemia, no. of patients [8]: 2 | Anorexia, no. of patients [8]: 1 | Bilirubin (raised), no. of patients [8]: 1 | CPK, no. of patients [8]: 1 | Cardiac arrythmia other, no. of patients [8]: 1 | Cardiac dysfunction, no. of patients [8]: 1 | Cardiac ischaemia, no. of patients [8]: 1 | Constipation, no. of patients [8]: 0 | Creatinine (raised), no. of patients [8]: 2 | Diarrhoea, no. of patients [8]: 0 | Fatigue, no. of patients [8]: 2 ^c | Leukopenia, no. of patients [8]: 1 | Lymphopenia, no. of patients [8]: 2 | Mucositis, no. of patients [8]: 0 | Myositis, no. of patients [8]: 0 | Nausea, no. of patients [8]: 2 | Neutropenia, no. of patients [8]: 1 | QT prolongation, no. of patients [8]: 1 | Supra ventricular arrythmia, no. of patients [8]: 1 | Syncope, no. of patients [8]: 0 | Thrombocytopenia, no. of patients [8]: 2 | Ventricular arrythmias (PVCs), no. of patients [8]: 1 | Ventricular bigemini, no. of patients [8]: 1 | Vomiting, no. of patients [8]: 2 ^c | ALT (raised), no. of patients [9]: 0 | AST (raised), no. of patients [9]: 0 | Abdominal pain, no. of patients [9]: 0 | Alkaline phophatase (raised), no. of patients [9]: 0 | Altered taste, no. of patients [9]: 0 | Anaemia, no. of patients [9]: 0 | Anorexia, no. of patients [9]: 0 | Bilirubin (raised), no. of patients [9]: 0 | Cardiac arrythmia other, no. of patients [9]: 0 | Cardiac dysfunction, no. of patients [9]: 0 | Cardiac ischaemia, no. of patients [9]: 0 | Constipation, no. of patients [9]: 0 | Creatinine (raised), no. of patients [9]: 0 | Diarrhoea, no. of patients [9]: 0 | Fatigue, no. of patients [9]: 0 | Leukopenia, no. of patients [9]: 0 | Lymphopenia, no. of patients [9]: 0 | Mucositis, no. of patients [9]: 0
